Laboratory results reported in patent US12052991B2, “Substituted pyridinyloxybenzenes and salts thereof and use thereof as herbicidal agents” (Bayer Aktiengesellschaft, priority 2018, dated 2024).

What was measured:
Assay type in all cases: in vivo
[1] = system: Echinochloa crus-galli (ECHCG); test: Herbicidal post-emergence action (Table B1); conditions: rated visually after about 3 weeks, 100% = plants have died, 0% = like control plants
Method in brief: (§1)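 Weeds grown from seed in sandy loam in the greenhouse were sprayed at the one-leaf stage, 2 to 3 weeks after sowing, with WP or EC formulations in water plus 0.5% additive at 600 L/ha. Rates corresponded to 1280 or 320 g/ha; damage was rated visually versus untreated controls after about 3 weeks.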

Lolium rigidum (LOLRI) [2] = test: Herbicidal post-emergence action (Table B2); conditions: rated visually after about 3 weeks, 100% = plants have died, 0% = like control plants
Method in brief: as §1

Poa annua (POAAN) [3] = test: Herbicidal post-emergence action (Table B3); conditions: rated visually after about 3 weeks, 100% = plants have died, 0% = like control plants
Method in brief: as §1

Setaria viridis (SETVI) [4] = test: Herbicidal post-emergence action (Table B4); conditions: rated visually after about 3 weeks, 100% = plants have died, 0% = like control plants
Method in brief: as §1

[5] = system: Abutilon theophrasti (ABUTH); test: Herbicidal post-emergence action (Table B5); conditions: rated visually after about 3 weeks, 100% = plants have died, 0% = like control plants
Method in brief: as §1

[6] = system: Amaranthus retroflexus (AMARE); test: Herbicidal post-emergence action (Table B6); conditions: visual rating about 3 weeks after treatment, 100% = plants have died, 0% = like control plants
Method in brief: as §1

Stellaria media (STEME) [7] = test: Herbicidal post-emergence action (Table B8); conditions: visual rating about 3 weeks after treatment, 100% = plants have died, 0% = like control plants
Method in brief: as §1

[8] = system: Echinochloa crus-galli (ECHCG); test: Herbicidal pre-emergence action, test C (Table C1); conditions: visual scoring after about 3 weeks, 100% = plants have died, 0% = like control plants
Method in brief: (§2)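 Sandy loam, doubly sown pots; surface spray pre-emergence; 1280 or 320 g/ha; 0.5% additive; 600 L/ha. Greenhouse, ~3 weeks. Visual % vs untreated.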

Lolium rigidum (LOLRI) [9] = test: Herbicidal pre-emergence action, test C (Table C2); conditions: visual scoring after about 3 weeks, 100% = plants have died, 0% = like control plants
Method in brief: as §2

Poa annua (POAAN) [10] = test: Herbicidal pre-emergence action, test C (Table C3); conditions: visual scoring after about 3 weeks, 100% = plants have died, 0% = like control plants
Method in brief: as §2

Setaria viridis (SETVI) [11] = test: Herbicidal pre-emergence action, test C (Table C4); conditions: visual scoring after about 3 weeks, 100% = plants have died, 0% = like control plants
Method in brief: as §2

[12] = system: Abutilon theophrasti (ABUTH); test: Herbicidal pre-emergence action, test C (Table C5); conditions: visual scoring after about 3 weeks, 100% = plants have died, 0% = like control plants
Method in brief: as §2

[13] = system: Amaranthus retroflexus (AMARE); test: Herbicidal pre-emergence action, test C (Table C6); conditions: visual scoring after about 3 weeks, 100% = plants have died, 0% = like control plants
Method in brief: as §2

Stellaria media (STEME) [14] = test: Herbicidal pre-emergence action, test C (Table C8); conditions: visual scoring after about 3 weeks, 100% = plants have died, 0% = like control plants
Method in brief: as §2

[15] = system: harmful plants ABUTH, AMARE, ECHCG, LOLRI, MATIN, POAAN, SETVI, STEME, ALOMY, DIGSA, KCHSC and VERPE; test: Herbicidal post-emergence action, summary of Tables B1-B12; conditions: application rate of 1280 or 320 g of active ingredient per hectare; summary in words
Method in brief: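 Greenhouse weeds in sandy loam treated post-emergence at the one-leaf stage, 2–3 weeks after sowing, with WP or EC formulations sprayed with 0.5% additive at 600 L/ha water, 1280 or 320 g/ha. Damage rated visually after about 3 weeks versus untreated controls (0% = like control, 100% = dead).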

[16] = system: harmful plants ABUTH, AMARE, ECHCG, LOLRI, MATIN, POAAN, SETVI, STEME, ALOMY, DIGSA, KCHSC and VERPE; test: Herbicidal pre-emergence action (test C), summary of Tables C1-C12; conditions: application rate of 1280 or 320 g of active ingredient per hectare; summary in words
Method in brief: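 Pre-emergence pot test in sandy loam: WP or EC formulations were sprayed onto the covering soil with 0.5% additive at 600 L/ha water, at 1280 or 320 g/ha. Plants were kept in the greenhouse, and activity was rated visually about 3 weeks later as % versus untreated controls (100% = dead).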

| SMILES | Post-emergence action against Echinochloa crus-galli (ECHCG) ([1]; 320 g/ha) [%] | Post-emergence action against Echinochloa crus-galli (ECHCG) ([1]; 1280 g/ha) [%] | Post-emergence action against Lolium rigidum (LOLRI) (Lolium rigidum (LOLRI) [2]; 1280 g/ha) [%] | Post-emergence action against Poa annua (POAAN) (Poa annua (POAAN) [3]; 320 g/ha) [%] | Post-emergence action against Poa annua (POAAN) (Poa annua (POAAN) [3]; 1280 g/ha) [%] | Post-emergence action against Setaria viridis (SETVI) (Setaria viridis (SETVI) [4]; 1280 g/ha) [%] | Post-emergence action against Abutilon theophrasti (ABUTH) ([5]; 320 g/ha) [%] | Post-emergence action against Abutilon theophrasti (ABUTH) ([5]; 1280 g/ha) [%] | Post-emergence action against Amaranthus retroflexus (AMARE) ([6]; dosage 320 g/ha) [%] | Post-emergence action against Amaranthus retroflexus (AMARE) ([6]; dosage 1280 g/ha) [%] | Post-emergence action against Stellaria media (STEME) (Stellaria media (STEME) [7]; dosage 320 g/ha) [%] | Post-emergence action against Stellaria media (STEME) (Stellaria media (STEME) [7]; dosage 1280 g/ha) [%] | Pre-emergence action against Echinochloa crus-galli (ECHCG) ([8]; dosage 1280 g/ha) [%] | Pre-emergence action against Lolium rigidum (LOLRI) (Lolium rigidum (LOLRI) [9]; dosage 1280 g/ha) [%] | Pre-emergence action against Poa annua (POAAN) (Poa annua (POAAN) [10]; dosage 320 g/ha) [%] | Pre-emergence action against Poa annua (POAAN) (Poa annua (POAAN) [10]; dosage 1280 g/ha) [%] | Pre-emergence action against Setaria viridis (SETVI) (Setaria viridis (SETVI) [11]; dosage 320 g/ha) [%] | Pre-emergence action against Setaria viridis (SETVI) (Setaria viridis (SETVI) [11]; dosage 1280 g/ha) [%] | Pre-emergence action against Abutilon theophrasti (ABUTH) ([12]; dosage 320 g/ha) [%] | Pre-emergence action against Abutilon theophrasti (ABUTH) ([12]; dosage 1280 g/ha) [%] | further results |
| --- | --- | --- | --- | --- | --- | --- | --- | --- | --- | --- | --- | --- | --- | --- | --- | --- | --- | --- | --- | --- | --- |
| FC(F)c1cc(-c2ccccc2Oc2ccc(Cl)cn2)on1 [Example 1-35] | 100 | 100 | 100 | 100 | 100 | 100 | 100 | 100 | 100 | 100 | 100 | 100 | 100 | 90 | 100 | 100 | 100 | 100 | 100 | 100 | Pre-emergence action against Amaranthus retroflexus (AMARE) ([13]; dosage 320 g/ha): 100%; Pre-emergence action against Amaranthus retroflexus (AMARE) ([13]; dosage 1280 g/ha): 100%; Pre-emergence action against Stellaria media (STEME) (Stellaria media (STEME) [14]; dosage 320 g/ha): 100%; Pre-emergence action against Stellaria media (STEME) (Stellaria media (STEME) [14]; dosage 1280 g/ha): 100%; herbicidal activity against the harmful plants of Tables B1-B12 in post-emergence treatment [15]: very good herbicidal activity; herbicidal activity against the harmful plants of Tables C1-C12 in pre-emergence treatment [16]: very good herbicidal activity |
| Fc1cccc(Oc2ccc(Cl)cn2)c1-c1cc(C(F)F)no1 [Example 1-17] | 100 | 100 | 100 | 100 | 100 | 100 | 100 | 100 | 100 | 100 | 100 | 100 | 100 | 100 | 100 | 100 | 100 | 100 | 100 | 100 | Post-emergence action against Lolium rigidum (LOLRI) (Lolium rigidum (LOLRI) [2]; 320 g/ha): 100%; Post-emergence action against Setaria viridis (SETVI) (Setaria viridis (SETVI) [4]; 320 g/ha): 100%; Pre-emergence action against Echinochloa crus-galli (ECHCG) ([8]; dosage 320 g/ha): 90%; Pre-emergence action against Lolium rigidum (LOLRI) (Lolium rigidum (LOLRI) [9]; dosage 320 g/ha): 100%; Pre-emergence action against Amaranthus retroflexus (AMARE) ([13]; dosage 320 g/ha): 100%; Pre-emergence action against Amaranthus retroflexus (AMARE) ([13]; dosage 1280 g/ha): 100%; Pre-emergence action against Stellaria media (STEME) (Stellaria media (STEME) [14]; dosage 320 g/ha): 100%; Pre-emergence action against Stellaria media (STEME) (Stellaria media (STEME) [14]; dosage 1280 g/ha): 100%; herbicidal activity against the harmful plants of Tables B1-B12 in post-emergence treatment [15]: very good herbicidal activity; herbicidal activity against the harmful plants of Tables C1-C12 in pre-emergence treatment [16]: very good herbicidal activity |
| Fc1cccc(Oc2ccc(Br)cn2)c1-c1cc(C(F)F)no1 [Example 1-40] | 100 | 100 | 100 | 100 | 100 | 100 | 100 | 100 | 100 | 100 | 100 | 100 | 100 | 100 | 100 | 100 | 100 | 100 | 100 | 100 | Post-emergence action against Lolium rigidum (LOLRI) (Lolium rigidum (LOLRI) [2]; 320 g/ha): 100%; Post-emergence action against Setaria viridis (SETVI) (Setaria viridis (SETVI) [4]; 320 g/ha): 100%; Pre-emergence action against Echinochloa crus-galli (ECHCG) ([8]; dosage 320 g/ha): 100%; Pre-emergence action against Lolium rigidum (LOLRI) (Lolium rigidum (LOLRI) [9]; dosage 320 g/ha): 90%; Pre-emergence action against Amaranthus retroflexus (AMARE) ([13]; dosage 320 g/ha): 100%; Pre-emergence action against Amaranthus retroflexus (AMARE) ([13]; dosage 1280 g/ha): 100%; Pre-emergence action against Stellaria media (STEME) (Stellaria media (STEME) [14]; dosage 320 g/ha): 100%; Pre-emergence action against Stellaria media (STEME) (Stellaria media (STEME) [14]; dosage 1280 g/ha): 100%; herbicidal activity against the harmful plants of Tables B1-B12 in post-emergence treatment [15]: very good herbicidal activity; herbicidal activity against the harmful plants of Tables C1-C12 in pre-emergence treatment [16]: very good herbicidal activity |
